For data set [1] the following is noted: in vivo, iv.
Protocol: (§3) On the ordinate, the response is given in units of integrated blood pressure observed over a 100 minute period after the intravenous injection of the test substance is pentobarbital-anesthetized rats (no. of animals=8 per group per dose). The area-under-curve, is given in units of mm Hg per minute.
Data set [2] has as its system B16 melanoma. In words: Growth of subcutaneously transplanted B16 melanoma in mice (tumor volume by caliper). Format: in vivo. Particulars: 0.1 mg/kg s.c. on days 3 to 7. The method, then: (§1) This example illustrates the anti-cancer property of an inventive peptide with a D-amino acid as residue 20. Various tumor cells were transplanted into mice or rats and the tumor volume was measured using a caliper-ruler. The volume of the tumor, in cubic mm, was estimated as the long axis×the square of the short axis divided by 2.
In the experiment of Table 2, female mice, weighing 20-25 g, of a C57B1 line, were transplanted under the skin with B16 melanoma cells. After transplantation of tumors mice were mixed and divided into groups of controls, CRH-treated and [D-Glu^20] CRH-treated. The test substances at a dose of 0.1 mg/kg subcutaneously or the vehicle control (saline) was injected on days 3 to 7 after tumor transplantation, and the volume of tumors were measured at various days afterwards.

The subject of data set [3] is Ehrlich solid carcinoma. In words: Growth of subcutaneously transplanted Ehrlich solid carcinoma in rats (tumor volume). Format: in vivo. Particulars: 0.1 mg/kg. The method, then:
as §1
(§2) The second experiment and third experiment (data shown in Tables 3 and 4) were conducted on white non-inbred male rats with a subcutaneous transplant of Walker carcinosarcoma or Ehrlich solid carcinoma. Animals after transplantation of tumors were mixed and were divided into groups of controls, CRH-treated and [D-Glu^20] CRH-treated.

Data set [4] concerns Walker carcinosarcoma. In words: Growth of subcutaneously transplanted Walker carcinosarcoma in rats (tumor volume). Format: in vivo. Particulars: 0.1 mg/kg. How it is done:
as §1, §2

Data set [5] can be described thus: Hypotensive effect in pentobarbital-anesthetized male rats after i.v. injection. Particulars: 0.05 mg/kg i.v.
Protocol: as §3
Data set [6] concerns W256 cells. Particulars: in vitro; cited from earlier work.
Data set [7] concerns W256 rat mammary carcinoma. Particulars: 100 micrograms/kg subcutaneously twice a day for 3 days; cited from earlier work.

Marks after values point to notes of the source that are not given here.

The text below walks through data of patent US6803359B2, “Inhibition of abnormal cell growth with corticotropin-releasing hormone analogs” (The Regents of the University of California, priority 1999, dated 2004).

For the compound `CC[C@H](C)[C@H](NC(=O)[C@@H](NC(=O)[C@H](CCC(=O)O)NC(=O)[C@H](CCSC)NC(=O)[C@H](CC(C)C)NC(=O)[C@H](CCCCN)NC(=O)[C@H](CCCNC(=N)N)NC(=O)[C@H](CC(N)=O)NC(=O)[C@H](CO)NC(=O)[C@H](Cc1c[nH]cn1)NC(=O)[C@H](C)NC(=O)[C@H](CCC(N)=O)NC(=O)[C@H](CCC(N)=O)NC(=O)[C@H](C)NC(=O)[C@H](CC(C)C)NC(=O)[C@H](CCC(N)=O)NC(=O)[C@H](CCC(=O)O)NC(=O)[C@H](C)NC(=O)[C@H](CCCNC(=N)N)NC(=O)[C@H](C)NC(=O)[C@H](CCSC)NC(=O)[C@@H](CCC(=O)O)NC(=O)[C@H](CC(C)C)NC(=O)[C@@H](NC(=O)[C@H](CCC(=O)O)NC(=O)[C@H](CCCNC(=N)N)NC(=O)[C@H](CC(C)C)NC(=O)[C@H](CC(C)C)NC(=O)[C@H](Cc1c[nH]cn1)NC(=O)[C@H](Cc1ccccc1)NC(=O)[C@@H](NC(=O)[C@H](CC(C)C)NC(=O)[C@H](CC(=O)O)NC(=O)[C@H](CC(C)C)NC(=O)[C@H](CO)NC(=O)[C@@H](NC(=O)[C@@H]1CCCN1C(=O)[C@@H]1CCCN1C(=O)[C@H](CCC(=O)O)NC(=O)[C@H](CCC(=O)O)NC(=O)[C@@H](N)CO)[C@@H](C)CC)[C@@H](C)O)C(C)C)[C@@H](C)CC)C(N)=O` [[D-Glu^20] CRH], the “hypotensive activity compared with unmodified CRH (human/rat) control” value in data set [1] is on record as “much less hypotensive activity”.
For “hCRH: unmodified human/rat corticotropin-releasing hormone, 41-residue C-terminally amidated peptide, SEQ ID NO 1”, the “Volume of Tumors” value in data set [2] (day 10 after transplantation) is 29 + 7* mm^3; in data set [2] (day 12 after transplantation), 157 + 23* mm^3; in data set [2] (day 14 after transplantation), 133 + 15* mm^3; in data set [2] (day 17 after transplantation) it was 238 + 41 mm^3; in data set [3] (day 9 after transplantation), 226 ± 14* mm^3; in data set [3] (day 11 after transplantation), 384 ± 61* mm^3. Also, the “Volume of Tumors” value is 763 ± 114* mm^3 in data set [3] (day 14 after transplantation); 196 mm^3 in data set [4] (day 7 after transplantation); 3600 ± 413 mm^3 in data set [4] (day 10 after transplantation); 6942 mm^3 in data set [4] (day 12 after transplantation); 10832 mm^3 in data set [4] (day 14 after transplantation). Also, the “average fall in mean blood pressure over a 100 minute period” value in data set [5] turned out to be 72 mm Hg. Further, in data set [5], the “integrated blood pressure response (area-under-curve) over a 100 minute period” value is “approximately 7200 mm Hg-min”. Also, the “antiproliferative effects in W256 cell cultures” value in data set [6] is recorded as “antiproliferative effects”. Further, the “inhibition of growth of intracerebrally-injected W256 tumor cells” value in data set [7] is reported as “significant inhibition of growth”.
